melting point [°C] | SMILES
207 to 209 | CCCc1nc2c(N)nc3ccccc3c2n1CCC(=O)N(C)C
175 to 177 | O=C(O)C(Sc1nc2ccc(Cl)nc2s1)c1ccccc1 (configuration not stated)
136 | CCOc1ccc(C=CC(=O)c2c(O)cc(OC)cc2OC)cc1
97 to 99 | CSc1nc(Cl)c(Cc2ccccc2)c(N2CCCC2)n1
50 to 53 | C[Si](C)(ON(Cc1ccccc1)Cc1ccccc1)ON(Cc1ccccc1)Cc1ccccc1
168 | COc1ccc(S(=O)(=O)C2(C(=O)NO)CCN(Cc3ccc(-c4ccccc4)cc3)CC2)cc1
171 to 173 | O=CNCC=C(c1ccc(-c2ccccc2)cc1)c1ccc(-c2ccccc2)cc1
323 to 324 | Cc1cnc2c(cc(C(N)=O)c3nncc32)c(-c2ccccc2F)n1
154 to 155 | OC1CCCc2nc3ccccc3c(NCc3cccc(C(F)(F)F)c3)c21 (configuration not stated)
147 to 148 | O=C1c2ccccc2C(=O)N1CCc1ncc(C(F)(F)F)cc1Cl
187 to 189 | CC(C)(O)c1cnc2c(NC(=O)c3c(Cl)cccc3Cl)cccc2c1
170 to 171 | Nc1ccc(CNc2n[nH]c3ncnc(Nc4cccc(Cl)c4)c23)cc1
> 300 | CCCn1c(=O)[nH]c(=O)c2nc(-c3ccc(/C=C/C(=O)O)cc3)[nH]c21
188 | O=C1C=CC(c2ccccc2)C2(c3ccccc3)CN(C(=O)Cc3ccccc3)CC12 (racemic)
87.7 | C#CCOc1cc(Oc2cc(Cl)ccc2Cl)ncn1
110 to 112 | CC(=O)c1cc(Cl)cc(Oc2ncccc2C(=O)NCc2ccc(C(C)(C)O)cc2)c1
204 to 206 | COc1cc2ncnc(NC3=CC(=O)C(N(C)c4ccccc4)=CC3=O)c2cc1OC
100 to 102 | Cc1cc(-c2nnn(C)n2)cc(C)c1OCCCCc1nccn1C
172 to 175 | O=C(O)c1ncc(C(c2ccccc2)c2ccccc2)cc1C(c1ccccc1)c1ccccc1
75 to 77 | CCN1c2cscc2C(=O)N(CCN(C)C)c2ccccc21
147 to 148 | CC(=O)Nc1ccc2nc(CN(C(C)C)C(C)C)ccc2c1
93 to 94 | CCCCS(=O)(=O)Nc1ccccc1OCc1ccc2ccccc2n1
184 | Cc1nn2c(C(F)(F)F)cc(-c3ccc(C(F)(F)F)cc3)nc2c1C#N
210 to 212 | COc1cc(OC)c(-c2cc3ccccc3[nH]2)cc1C=CC(=O)c1ccc(C(=O)O)cc1
156 to 157 | O=C(NCCSC(c1ccccc1)(c1ccccc1)c1ccccc1)c1cc2cccc(OCc3ccccc3)c2[nH]1
163 to 168 | CC(=NNC(=O)c1cccc([N+](=O)[O-])c1O)c1ccccc1
164 to 166 | CC(=O)c1ccc2nc(-n3ccnc3)nc(NCCOCCO)c2c1
100 to 102 | CCCCNC(=O)Cc1ccc2c(c1)c(Cc1ccc(C(=O)NS(=O)(=O)c3ccccc3C)cc1OC)cn2CCC

melting point [°C] | SMILES
226 to 230 | CCc1nc2c(N)nc3ccc(OCc4ccccc4)cc3c2n1CCCCNC(=O)c1ccccc1
166 to 173 | CC(C)(N)c1ccc(-c2nc(Nc3ccc(CCN4CCOCC4)cc3)ncc2Cl)cc1
64 to 67 | CC(NO)c1ccc2c(c1)Sc1ccccc1O2 (configuration not stated)
128 to 129 | N#Cc1ccc2c(c1)CC[C@@H]1CC(=O)CC[C@@]21Cc1ccccc1
193 to 200 | CN1CCC(C2(O)c3ccccc3Oc3ccc(F)cc32)CC1 (configuration not stated)
164 to 166 | CCS(=O)(=O)c1cn(C)c2ccccc2c1=O
177 to 180 | N#Cc1ccc(N(Cc2ccc(OS(N)(=O)=O)cc2)n2cnnc2)cc1-c1ccc(C(F)(F)F)cc1
158 to 160 | O=C(NCP(=O)(O)c1ccccc1)c1ccccc1
105 to 106 | CCOC(=O)c1c(-c2ccccc2Cl)c2cc(CC)sc2n(C)c1=O
126 to 127 | CC(C)(C)c1ccc(OCCCN2CCC(C(O)(c3ccc(F)cc3)c3ccc(F)cc3)CC2)cc1
127 to 128 | CCc1cccc2c(/C=C(/C)C(=O)O)cc(OC)c(O)c12
167 to 168 | Clc1cccc(Nc2nccc(-c3ccncc3)n2)c1
219 to 220 | Cc1ccc(-c2nnc3cc(-c4ccccc4)c(OCc4ncn(C)n4)nn23)cc1
160 to 162 | COc1ccc2cc(-c3cncn3C)cc(C)c2n1
256 to 258 | CC1(C)C(=O)Nc2ccc(-c3ccc(C#N)[nH]3)cc21
70 to 71 | O=C(C1=CCCCC1)c1cc(-c2ccccc2)no1
125 to 126 | O=C1C(Br)CCN1c1ccc(OCc2ccccc2)cc1 (racemic)
191 to 193 | CS(=O)(=O)c1ccc(-c2cnn(C3CCCC3)c(=O)c2-c2ccc(F)cc2)cc1
171 to 173 | O=C(NCc1ccc(F)cc1)c1ccnc(N2CCN(Cc3ccc(F)cc3F)C2=O)c1
188 | FC(F)(F)c1cc(-c2ccc(Cl)c(Cl)c2)nc2c(-c3ccccn3)cnn12
133 to 135 | CS(=O)(=O)c1ccc(-c2cnn(CC(F)(F)F)c(=O)c2OCC2CC2)cc1
80 to 86 | Cc1occ2c1-c1ccccc1C(=C1CCN(C)CC1)c1ccccc1-2
84 to 85 | c1ccc(COc2ccc(COc3ccc(CCCn4ccnc4)cc3)cn2)cc1
69 to 72 | O=[N+]([O-])c1ccc(Oc2ccc(C(F)(F)F)cc2Cl)nc1
104 to 105 | CCOc1ccc(OCCCc2cn(-c3ccc(C(F)(F)F)cn3)nc2OCC)c(CCC(=O)O)c1
113 | Cc1cc(-n2ccnc2)c2cccc(OCc3c(Cl)ccc(S(=O)(=O)N4CCC[C@H]4C(=O)NCC4CCN(Cc5ccncc5)CC4)c3Cl)c2n1
136 to 137 | Cc1ccc2c(c1)C(C(F)(F)F)(C(F)(F)F)c1cc(C)ccc1O2

Continued, molecule first:

SMILES | melting point [°C]
O=C(O)c1cn(C2CCC2)c2c(F)c(F)c(F)cc2c1=O | 192 to 194
CNC(=O)c1cc(Cl)cc(C)c1N | 141 to 143
ON=C1Cc2ccccc2C1 | 145 to 148
CC(O)Cc1cc([N+](=O)[O-])cc(N)c1N (configuration not stated) | 174
O=C1OCCC1NS(=O)(=O)c1ccc(Cl)cc1 (racemic) | 113 to 115
CN1N=C(c2ccc3c(c2)CCC(=O)N3)C2CC2C1=O (configuration not stated) | 255 to 259
CCS(=O)(=O)NC1CCCOc2ccccc21 (configuration not stated) | 109 to 111
O=C(O)CCCCCCCCC(=O)c1ccccc1O | 85 to 87
O=C(O)CCc1conc1-c1ccc(F)c(Br)c1 | 151 to 152
CN1CCN(c2ccc([N+](=O)[O-])cc2)C1=O | 207 to 208
Clc1ccc2onc(Cl)c2c1 | 43 to 44
CC1CSC(=O)C2Cc3ccccc3N2C1=O (configuration not stated) | 108 to 110
COc1ccc(S(=O)(=O)NC=NCCSCc2csc(NC=NN)n2)cc1 | 68 to 76
CC(C)c1cc(C(C)C)c(CC(=O)NS(=O)(=O)Oc2c(C(C)C)cc(NCCO)cc2C(C)C)c(C(C)C)c1 | 149 to 152
COc1ccccc1C1CCN(C[C@@H](CC2CCCCC2)NC(=O)C2CCCCC2)CC1 | 100 to 103
CC(C)(C)C(=O)c1ccc(C(C)(C)C(=O)O)cc1 | 128 to 130
CC(CC(=O)NC(=O)OC(C)(C)C)Nc1ccccc1 (configuration not stated) | 117 to 118
CSc1ccc(C(=O)c2c(C)c(C(=O)O)c3n2CCC3C(=O)O)n1C (configuration not stated) | 212 to 213
CC(O)CNc1cc(Cl)cc(NCC(C)O)c1[N+](=O)[O-] (configuration not stated) | 170
CCC(=O)OC1CCC2C3CCC4=CC(=O)CCC4(CO)C3CCC12C (configuration not stated) | 160 to 162
CC(=CC(=O)NCCCCCC(=O)NO)c1ccccc1 | 131 to 133
O=Cc1ccc(CCCCCCCC(=O)O)o1 | 70 to 72
CCc1cc(C2=CCN(CCCC(O)c3ccc(F)cc3)CC2)[nH]n1 (configuration not stated) | 140 to 142
COC(C)c1cc([N+](=O)[O-])ccc1C (configuration not stated) | 35 to 37

SMILES | melting point [°C]
CCn1ncc2c3[nH]cnc(=O)c3cnc21 | 320 to 322
O=C1CCNCCNC(=O)CCNCCN1 | 198 to 199
O=C1CC(NC(=O)c2ccc3nc[nH]c3c2)CCCN1 (configuration not stated) | 297 to 299
Cc1nc(F)c(S(C)(=O)=O)c(F)n1 | 120 to 123
CC(=NOCCC(N)=O)c1ccc(Cl)cc1 | 149 to 150
CC1(C2CCC3C4CC=C5CC(O)CC(O)C5(C)C4CCC32C)OCCO1 (configuration not stated) | 203 to 207
CCOC(=O)C=Cc1ccc(OC)cc1OC | 58
NS(=O)(=O)c1cc2ccc(=O)[nH]c2s1 | 306 to 308
CC(C)[C@@H](CO)NS(=O)(=O)c1ccc(Cl)cc1 | 83 to 85
CC(=O)OCC(O)(COC(C)=O)c1ccc(F)cc1F | 70.5 to 71.5
O=[N+]([O-])c1ccc(C23CCN(CC2)CC3)cc1 | 130 to 135
O=C(O)CCCC(=O)N1CCN(c2cc3c(cc2F)c(=O)c(C(=O)O)c2sccn23)CC1 | 276 to 278
CCOC(=O)C1[C@@H]2[C@@H](O)[C@@H]3O[C@H](c4ccc(F)cc4F)OC[C@H]3O[C@H]12 (some centres not stated) | 130 to 133
COc1nc(N)nc2c1ncn2[C@H]1C[C@H](O)[C@@H](CO)O1 | 155 to 157
CC12CCC3c4ccc(O)cc4CC(Sc4ccc(Br)cc4)C3C1CCC2O (configuration not stated) | 165 to 166
C=CCOC(=O)c1cnc2c(cnn2CCC(C)C)c1N | 124 to 126
OCc1cc(Cl)c(Cl)c(Cl)n1 | 82 to 83
COC(=O)c1cccc(C)c1OC(=S)N(C)C | 94 to 96
Cc1c(S(=O)(=O)c2ccc(=O)[nH]n2)oc2ccc(C(F)(F)F)cc12 | 244 to 245
CC(=O)Nc1cc(N)ccc1OCCCN | 102 to 106
O=[N+]([O-])c1ccc(Oc2ccc(C(c3ccc(Oc4ccc([N+](=O)[O-])cc4)cc3)(C(F)(F)F)C(F)(F)F)cc2)cc1 | 150 to 152
COC(=O)c1cc(CC(C)NCC(O)c2ccc(O)c(CO)c2)ccc1O (configuration not stated) | 65 to 69
C=C1CCC2C3CCc4cc(OC)ccc4C3CCC12C (configuration not stated) | 59 to 62
